Results: US20250382344A1, “Soluble GLP1/GIP/NPY2 Receptor Triple Agonists” (Boehringer Ingelheim International GmH, priority 2024, published 2025)
pEC50: −log10 of the molar value. Like-named read-outs stand apart in the source and are kept apart here.

Columns and labels:
hGIPR = target: T1, hGIPR (Homo sapiens, UniProt P48546); experiment: hGIPR CreLuc assay in 0.5% and 100% plasma (CHO CRE-luciferase reporter cells); assay type: cell-based; settings: 0.5% human plasma, read-out: hGIPR 0.5% hP
T1 construct: expressed in transfected cells; host or cells: CHO CRE-luciferase reporter cells
T1 sequence (P48546 22-466): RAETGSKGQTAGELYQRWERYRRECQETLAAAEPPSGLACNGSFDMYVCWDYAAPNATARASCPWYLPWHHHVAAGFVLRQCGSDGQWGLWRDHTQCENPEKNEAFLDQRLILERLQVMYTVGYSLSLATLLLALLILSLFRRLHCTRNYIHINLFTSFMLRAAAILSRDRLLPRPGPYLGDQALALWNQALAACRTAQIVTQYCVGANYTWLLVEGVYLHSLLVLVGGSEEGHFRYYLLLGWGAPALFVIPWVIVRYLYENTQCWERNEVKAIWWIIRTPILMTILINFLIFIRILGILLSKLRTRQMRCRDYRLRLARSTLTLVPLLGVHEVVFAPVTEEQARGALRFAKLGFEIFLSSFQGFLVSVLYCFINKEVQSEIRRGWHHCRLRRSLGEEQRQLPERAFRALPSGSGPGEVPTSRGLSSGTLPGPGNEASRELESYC

[1] = Solubility in 0.1 M phosphate buffer at pH 7; assay type: physicochemical; settings: 0.1 M phosphate buffer at pH 7, 10 mg/mL final peptide concentration, shaking 2 hours at room temperature, peptides as TFA-salts; measured sample pH 6.5-7.0
hGLP1R = target: T2, hGLP1R (Homo sapiens, UniProt P43220); experiment: hGLP1R CreLuc assay in 0.5% and 100% plasma (HEK-293 CRE-luciferase reporter cells); assay type: cell-based; settings: HEK-293 reporter cells
T2 construct: expressed in transfected cells; host or cells: HEK-293 CRE-luciferase reporter cells
T2 sequence (P43220 24-463): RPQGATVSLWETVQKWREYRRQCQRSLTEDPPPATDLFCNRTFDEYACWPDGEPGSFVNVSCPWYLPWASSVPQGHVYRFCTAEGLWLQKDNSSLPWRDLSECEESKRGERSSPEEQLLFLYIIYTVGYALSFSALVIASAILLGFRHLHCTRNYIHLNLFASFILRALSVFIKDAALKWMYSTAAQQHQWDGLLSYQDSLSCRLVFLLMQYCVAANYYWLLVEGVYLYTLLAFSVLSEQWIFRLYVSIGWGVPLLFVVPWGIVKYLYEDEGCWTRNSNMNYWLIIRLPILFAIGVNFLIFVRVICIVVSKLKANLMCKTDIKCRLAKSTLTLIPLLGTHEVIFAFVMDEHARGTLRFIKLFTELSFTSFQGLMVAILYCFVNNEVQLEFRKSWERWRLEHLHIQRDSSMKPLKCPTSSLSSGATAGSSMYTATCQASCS
Excerpt: CHO and HEK-293 recombinant cell lines express a luciferase reporter gene under control of the CAMP responsive element (CRE). As a second recombinant protein the GLP-1 and NPY2 receptors were expressed in the reporter gene HEK cells, and the GIP receptor was expressed in the reporter gene CHO cells, respectively. Stimulation of these recombinant cells with an agonist leads to an increase of intracellular CAMP levels. In the presence of CAMP, the transcription factor CRE binding protein (CREB) binds to the CRE and to the CREB binding protein (CBP), which leads to transcription of the luciferase reporter gene. Peptides upon serial-dilution in 100% DMSO were transferred into 384-well assay plates with 5 μl pre-dispensed assay buffer (1×HBSS, 20 mM HEPES, pH7.4 supplemented with 0.5% human plasma) using acoustic dispensing on a Labcyte ECHO. Cryo-preserved transgenic reporter gene cells were thawed in assay buffer. 20 μl (10.000 cells/well) were added to the plate with the peptides and incubated for 4 hours at 37° C. in a humidified incubator. Following incubation, assay plates are equilibrated to room temperature, followed by addition of 25 μl of Bright-Glo™ Luciferase reagent, incubation at room temperature for 10 minutes and analysis of luminescence (Envision Reader). […] EC50 values were calculated by non-linear regression using sigmoid concentration-response with variable slope.
The same assays were run in the presence of 100% plasma with no additional buffer constituents.

[2] = 0.5% human plasma, read-out: hGLP1R 0.5% hP

Row | SMILES | pEC50 (hGIPR) | solubility at 2 h [1] [µg/mL] | pEC50 (hGLP1R; [2]) | pEC50 (hGLP1R; 100% human plasma, read-out: hGLP1R 100% hP)
1 | CC[C@H](C)[C@H](NC(=O)[C@H](CC(C)C)NC(=O)[C@H](Cc1c[nH]cn1)NC(=O)[C@H](CCCNC(=N)N)NC(=O)[C@@H](NC(=O)[C@H](Cc1ccccc1)NC(=O)[C@H](C)NC(=O)C(C)(C)NC(=O)[C@H](CCC(N)=O)NC(=O)[C@H](C)NC(=O)[C@H](CCC(N)=O)NC(=O)[C@H](CCCCN)NC(=O)[C@H](CCC(=O)O)NC(=O)[C@H](CC(C)C)NC(=O)C(C)(C)NC(=O)[C@@H](NC(=O)[C@H](CO)NC(=O)[C@H](Cc1ccc(O)cc1)NC(=O)[C@H](CC(=O)O)NC(=O)[C@H](CO)NC(=O)[C@@H](NC(=O)[C@H](Cc1ccccc1)NC(=O)[C@@H](NC(=O)CNC(=O)[C@H](CCC(=O)O)NC(=O)C(C)(C)NC(=O)[C@@H](N)Cc1ccc(O)cc1)[C@@H](C)O)[C@@H](C)O)[C@@H](C)CC)C(C)C)C(=O)N[C@@H](CC(N)=O)C(=O)N[C@@H](CCCCNC(=O)CC[C@H](NC(=O)CC[C@H](NC(=O)CC[C@H](NC(=O)CC[C@H](NC(=O)CC[C@H](NC(=O)CC[C@H](NC(=O)CCCCCCCCCCCCCCCCC(=O)O)C(=O)O)C(=O)O)C(=O)O)C(=O)O)C(=O)O)C(=O)O)C(=O)NC(C)(C)C(=O)N[C@H](C(=O)N[C@@H](CCCNC(=N)N)C(=O)N(C)[C@@H](CCC(N)=O)C(=O)N[C@@H](CCCNC(=N)N)C(=O)N[C@@H](Cc1ccc(O)cc1)C(N)=O)[C@@H](C)O [Compound 2, Y-Aib-E-G-T-F-T-S-D-Y-S-I-Aib-L-E-K-Q-A-Q-Aib-A-F-V-R-H-L-I-N-K(1,3)-Aib-T-R-NMeQ-R-Y-NH2.C18DA-gGlu-gGlu-gGlu-gGlu-gGlu-gGlu(1,2)] | 9.40 | 5000 | 9.10 | 
2 | CC[C@H](C)[C@H](NC(=O)[C@H](CC(C)C)NC(=O)[C@H](Cc1c[nH]cn1)NC(=O)[C@H](CCCNC(=N)N)NC(=O)[C@@H](NC(=O)[C@H](Cc1ccccc1)NC(=O)[C@H](C)NC(=O)C(C)(C)NC(=O)[C@H](CCC(N)=O)NC(=O)[C@H](C)NC(=O)[C@H](CCC(N)=O)NC(=O)[C@H](CCC(=O)O)NC(=O)[C@H](CCC(=O)O)NC(=O)[C@H](CC(C)C)NC(=O)C(C)(C)NC(=O)[C@@H](NC(=O)[C@H](CO)NC(=O)[C@H](Cc1ccc(O)cc1)NC(=O)[C@H](CC(=O)O)NC(=O)[C@H](CO)NC(=O)[C@@H](NC(=O)[C@H](Cc1ccccc1)NC(=O)[C@@H](NC(=O)CNC(=O)[C@H](CCC(=O)O)NC(=O)C(C)(C)NC(=O)[C@@H](N)Cc1ccc(O)cc1)[C@@H](C)O)[C@@H](C)O)[C@@H](C)CC)C(C)C)C(=O)N[C@@H](CC(N)=O)C(=O)N[C@@H](CCCCNC(=O)[C@@H](N)CCCCNC(=O)CC[C@H](NC(=O)CC[C@H](NC(=O)CC[C@H](NC(=O)CC[C@H](NC(=O)CC[C@H](NC(=O)CCCCCCCCCCCCCCCCC(=O)O)C(=O)O)C(=O)O)C(=O)O)C(=O)O)C(=O)O)C(=O)NC(C)(C)C(=O)N[C@H](C(=O)N[C@@H](CCCNC(=N)N)C(=O)N[C@@H](CCC(N)=O)C(=O)N[C@@H](CCCNC(=N)N)C(=O)N[C@@H](Cc1ccc(O)cc1)C(N)=O)[C@@H](C)O [Compound 48, Y-Aib-E-G-T-F-T-S-D-Y-S-I-Aib-L-E-E-Q-A-Q-Aib-A-F-V-R-H-L-I-N-K(1,3)-Aib-T-R-Q-R-Y-NH2.C18DA-gGlu-gGlu-gGlu-gGlu-gGlu-eLys(1,2)] | 10.00 | 7700 | 9.30 | 

The remaining compounds from weak to strong by pEC50 (hGIPR), led by results:

Row | pEC50 (hGIPR) | solubility at 2 h [1] [µg/mL] | pEC50 (hGLP1R; [2]) | pEC50 (hGLP1R; 100% human plasma, read-out: hGLP1R 100% hP) | SMILES
3 | 9.30 | 5000 | 9.30 |  | CC[C@H](C)[C@H](NC(=O)[C@H](CC(C)C)NC(=O)[C@H](Cc1c[nH]cn1)NC(=O)[C@H](CCCNC(=N)N)NC(=O)[C@@H](NC(=O)[C@H](Cc1ccccc1)NC(=O)[C@H](CCC(=O)O)NC(=O)C(C)(C)NC(=O)[C@H](CCC(N)=O)NC(=O)[C@H](C)NC(=O)[C@H](CCC(=O)O)NC(=O)[C@H](CCC(=O)O)NC(=O)[C@H](CCC(=O)O)NC(=O)[C@H](CC(C)C)NC(=O)C(C)(C)NC(=O)[C@@H](NC(=O)[C@H](CO)NC(=O)[C@H](Cc1ccc(O)cc1)NC(=O)[C@H](CC(=O)O)NC(=O)[C@H](CO)NC(=O)[C@@H](NC(=O)[C@H](Cc1ccccc1)NC(=O)[C@@H](NC(=O)CNC(=O)[C@H](CCC(=O)O)NC(=O)C(C)(C)NC(=O)[C@@H](N)Cc1ccc(O)cc1)[C@@H](C)O)[C@@H](C)O)[C@@H](C)CC)C(C)C)C(=O)N[C@@H](CC(N)=O)C(=O)N[C@@H](CCCCNC(=O)COCCOCCNC(=O)COCCOCCNC(=O)CC[C@H](NC(=O)CCCCCCCCCCCCCCCCC(=O)O)C(=O)O)C(=O)NC(C)(C)C(=O)N[C@H](C(=O)N[C@@H](CCCNC(=N)N)C(=O)N[C@@H](CCC(N)=O)C(=O)N[C@@H](CCCNC(=N)N)C(=O)N[C@@H](Cc1ccc(O)cc1)C(N)=O)[C@@H](C)O [Compound 130, Y-Aib-E-G-T-F-T-S-D-Y-S-I-Aib-L-E-E-E-A-Q-Aib-E-F-V-R-H-L-I-N-K(1,3)-Aib-T-R-Q-R-Y-NH2.C18DA-gGlu-OEG-OEG(1,2)]
4 | 9.70 | 9400 | 9.30 |  | CC[C@H](C)[C@H](NC(=O)[C@H](CC(C)C)NC(=O)[C@H](Cc1c[nH]cn1)NC(=O)[C@H](CCCNC(=N)N)NC(=O)[C@@H](NC(=O)[C@H](Cc1ccccc1)NC(=O)[C@H](C)NC(=O)C(C)(C)NC(=O)[C@H](CCC(N)=O)NC(=O)[C@H](C)NC(=O)[C@H](CCC(N)=O)NC(=O)[C@H](CCC(N)=O)NC(=O)[C@H](CCC(=O)O)NC(=O)[C@H](CC(C)C)NC(=O)C(C)(C)NC(=O)[C@@H](NC(=O)[C@H](CO)NC(=O)[C@H](Cc1ccc(O)cc1)NC(=O)[C@H](CC(=O)O)NC(=O)[C@H](CO)NC(=O)[C@@H](NC(=O)[C@H](Cc1ccccc1)NC(=O)[C@@H](NC(=O)CNC(=O)[C@H](CCC(=O)O)NC(=O)C(C)(C)NC(=O)[C@@H](N)Cc1ccc(O)cc1)[C@@H](C)O)[C@@H](C)O)[C@@H](C)CC)C(C)C)C(=O)N[C@@H](CC(N)=O)C(=O)N[C@@H](CCCCNC(=O)[C@@H](N)CCCCNC(=O)CC[C@H](NC(=O)CC[C@H](NC(=O)CC[C@H](NC(=O)CC[C@H](NC(=O)CC[C@H](NC(=O)CC[C@H](NC(=O)CCCCCCCCCCCCCCCCC(=O)O)C(=O)O)C(=O)O)C(=O)O)C(=O)O)C(=O)O)C(=O)O)C(=O)NC(C)(C)C(=O)N[C@H](C(=O)N[C@@H](CCCNC(=N)N)C(=O)N[C@@H](CCC(N)=O)C(=O)N[C@@H](CCCNC(=N)N)C(=O)N[C@@H](Cc1ccc(O)cc1)C(N)=O)[C@@H](C)O [Compound 23, Y-Aib-E-G-T-F-T-S-D-Y-S-I-Aib-L-E-Q-Q-A-Q-Aib-A-F-V-R-H-L-I-N-K(1,3)-Aib-T-R-Q-R-Y-NH2.C18DA-gGlu-gGlu-gGlu-gGlu-gGlu-gGlu-eLys(1,2)]
5 | 9.70 | 4100 | 9.15 | 8.40 | CC[C@H](C)[C@H](NC(=O)[C@H](CC(C)C)NC(=O)[C@H](C)NC(=O)[C@H](CCCNC(=N)N)NC(=O)[C@@H](NC(=O)[C@H](Cc1ccccc1)NC(=O)[C@H](C)NC(=O)C(C)(C)NC(=O)[C@H](CCC(N)=O)NC(=O)[C@H](C)NC(=O)[C@H](CCC(N)=O)NC(=O)[C@H](CCCCN)NC(=O)[C@H](CCC(=O)O)NC(=O)[C@H](CC(C)C)NC(=O)C(C)(C)NC(=O)[C@@H](NC(=O)[C@H](CO)NC(=O)[C@H](Cc1ccc(O)cc1)NC(=O)[C@H](CC(=O)O)NC(=O)[C@H](CO)NC(=O)[C@@H](NC(=O)[C@H](Cc1ccccc1)NC(=O)[C@@H](NC(=O)CNC(=O)[C@H](CCC(=O)O)NC(=O)C(C)(C)NC(=O)[C@@H](N)Cc1ccc(O)cc1)[C@@H](C)O)[C@@H](C)O)[C@@H](C)CC)C(C)C)C(=O)N[C@@H](CC(N)=O)C(=O)N[C@@H](CCCCNC(=O)[C@@H](N)CCCCNC(=O)CC[C@H](NC(=O)CC[C@H](NC(=O)CC[C@H](NC(=O)CC[C@H](NC(=O)CC[C@H](NC(=O)CC[C@H](NC(=O)CCCCCCCCCCCCCCCCC(=O)O)C(=O)O)C(=O)O)C(=O)O)C(=O)O)C(=O)O)C(=O)O)C(=O)NC(C)(C)C(=O)N[C@H](C(=O)N[C@@H](CCCNC(=N)N)C(=O)N[C@@H](CCC(N)=O)C(=O)N[C@@H](CCCNC(=N)N)C(=O)N[C@@H](Cc1ccc(O)cc1)C(N)=O)[C@@H](C)O [Compound 128, Y-Aib-E-G-T-F-T-S-D-Y-S-I-Aib-L-E-K-Q-A-Q-Aib-A-F-V-R-A-L-I-N-K(1,3)-Aib-T-R-Q-R-Y-NH2.C18DA-gGlu-gGlu-gGlu-gGlu-gGlu-gGlu-eLys(1,2)]
